Like-named read-outs stand apart in the source and are kept apart here.

What all share (format): biochemical
The target in one assay is T1, Sirt3 (Homo sapiens, UniProt Q9NTG7).
T1 construct: Expression and purification of Sirt1_133−747, Sirt2_56−356, and Sirt3_118−395 was carried out as described previously; made in house
T1 sequence (Q9NTG7 118-395): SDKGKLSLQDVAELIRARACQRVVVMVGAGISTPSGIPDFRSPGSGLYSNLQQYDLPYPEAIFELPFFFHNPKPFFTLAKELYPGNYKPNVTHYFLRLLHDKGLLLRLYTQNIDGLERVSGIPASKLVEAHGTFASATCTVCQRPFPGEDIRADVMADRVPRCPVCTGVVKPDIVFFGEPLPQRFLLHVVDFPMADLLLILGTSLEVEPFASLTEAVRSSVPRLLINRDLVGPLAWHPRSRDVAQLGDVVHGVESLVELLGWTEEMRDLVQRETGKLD
Nature of the assay: Fluorescence-based ZMAL deacetylase activity assay, Sirt3. Details: key to Sirt3 inhibition Δ (class) / Sirt3 inhibition PSS [365 nm] (class): n.i.: no inhibition detected (<30 % @ 100 μM); u.i.: unspecific interactions. Summed up: (§1)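 Recombinant Sirt1_133−747, Sirt2_56−356 and Sirt3_118−395 deacetylated ZMAL, and trypsin then released AMC (ex 390/em 460 nm). Compounds were tested at 100 or 50 μM and 10 μM, with or without prior 365 nm irradiation (5 min) in DMSO. Inhibition is relative to a DMSO control, and IC50 came from a four-parameter fit over 8–10 concentrations.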

The next assay addresses T2, Sirt1 (Homo sapiens, UniProt Q96EB6).
T2 construct: Expression and purification of Sirt1_133−747, Sirt2_56−356, and Sirt3_118−395 was carried out as described previously; made in house
T2 sequence (Q96EB6 133-747): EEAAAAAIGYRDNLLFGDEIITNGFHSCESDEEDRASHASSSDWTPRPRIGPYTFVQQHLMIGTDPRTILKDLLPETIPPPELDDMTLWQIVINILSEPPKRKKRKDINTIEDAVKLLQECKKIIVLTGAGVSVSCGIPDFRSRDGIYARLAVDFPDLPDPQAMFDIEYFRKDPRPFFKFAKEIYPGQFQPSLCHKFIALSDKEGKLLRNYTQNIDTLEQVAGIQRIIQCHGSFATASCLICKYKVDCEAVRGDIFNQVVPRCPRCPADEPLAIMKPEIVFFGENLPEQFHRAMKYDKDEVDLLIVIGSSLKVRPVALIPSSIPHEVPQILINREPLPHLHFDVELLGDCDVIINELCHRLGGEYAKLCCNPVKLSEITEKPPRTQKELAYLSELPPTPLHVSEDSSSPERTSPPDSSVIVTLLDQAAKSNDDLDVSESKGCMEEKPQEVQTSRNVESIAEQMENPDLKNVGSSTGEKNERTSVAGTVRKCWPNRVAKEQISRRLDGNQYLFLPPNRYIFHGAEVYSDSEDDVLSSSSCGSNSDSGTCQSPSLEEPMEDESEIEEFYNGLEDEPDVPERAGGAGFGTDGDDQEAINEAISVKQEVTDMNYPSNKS
Nature of the assay: Fluorescence-based ZMAL deacetylase activity assay, Sirt1. To be noted: @ 100 μM. A digest of the protocol: as §1

Another assay deals with T3, Sirt2 (Homo sapiens, UniProt Q8IXJ6).
T3 construct: Expression and purification of Sirt1_133−747, Sirt2_56−356, and Sirt3_118−395 was carried out as described previously; made in house
T3 sequence (Q8IXJ6 56-356): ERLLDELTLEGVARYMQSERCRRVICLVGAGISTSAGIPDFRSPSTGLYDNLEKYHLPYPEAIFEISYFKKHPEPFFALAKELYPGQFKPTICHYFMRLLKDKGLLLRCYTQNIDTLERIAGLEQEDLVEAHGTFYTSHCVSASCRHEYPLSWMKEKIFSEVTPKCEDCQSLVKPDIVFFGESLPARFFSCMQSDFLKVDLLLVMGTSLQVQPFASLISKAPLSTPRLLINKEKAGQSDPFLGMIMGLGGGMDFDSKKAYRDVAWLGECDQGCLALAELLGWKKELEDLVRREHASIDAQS
Nature of the assay: Fluorescence-based ZMAL deacetylase activity assay, Sirt2. Details: key to Sirt2 inhibition Δ (class): n.i.: no inhibition detected (<30 % @ 100 μM); u.i.: unspecific interactions. A digest of the protocol: as §1

As to `C#Cc1ccc(/N=N/c2cccc(COc3cncc(C(N)=O)c3)c2)cc1` [20 c], the concentration for half-maximal inhibition (IC50) on Sirt3 (PSS after 5 min UV irradiation (365 nm), read-out: Sirt3 inhibition PSS [365 nm], IC50) was determined as 17.2 ± 1.57 µM; at Sirt2 (PSS after 5 min UV irradiation (365 nm), read-out: Sirt2 inhibition PSS [365 nm], IC50), 6.2 ± 0.54 µM. Besides, on Sirt3 (thermal equilibrium (Δ)), the “Sirt3 inhibition Δ (class)” value is on record as “u.i”. For the same compound, the inhibition at 100 µM on Sirt1 (PSS after 5 min UV irradiation (365 nm), read-out: Sirt1 inhibition PSS [365 nm], percent inhibition) came to 62%; on Sirt1 (thermal equilibrium (Δ), read-out: Sirt1 inhibition Δ, percent inhibition) it was 45%. For the same compound, the “Sirt2 inhibition Δ (class)” value on Sirt2 (thermal equilibrium (Δ)) is listed as “u.i”.

A word on the IC50: it is the concentration at which inhibition is half-maximal. As a reminder, the inhibition is the change of the read-out against control, counted positive when it falls.

(Values after publication PMC7496931, “Activation of Sirtuin 2 Inhibitors Employing Photoswitchable Geometry and Aqueous Solubility” (Chemmedchem, 2020).)
